Test results published in the supplement of paper PMC10883282.

Key:
Assay in all cases: relative viability vs DMSO control (72 h) (fraction); higher = more viable cells
VA-ES-BJ = tested on: VA-ES-BJ
Method in brief: (§1)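 After seeding at densities set for 80–90% confluence in 384-well plates, sarcoma cell lines waited 24 h before 2.5 µl of serially diluted compound was added. Source plates held 10 mM down to 0.0002 mM. Plates were incubated 72 h at 37 °C with 5% CO2, with 0.1% DMSO vehicle and a 5 µM positive control, and relative viability was taken from ATPLite as percent growth averaged over up to triplicate wells, with 1 set as full and 0 as none.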

SW982 = tested on: SW982
Method in brief: as §1

SW684 = tested on: SW684
Method in brief: as §1

G401 = tested on: G401
Method in brief: as §1

A204 = tested on: A204
Method in brief: as §1

KHOS-NP = tested on: KHOS-NP
Method in brief: as §1

SK-ES-1 = tested on: SK-ES-1
Method in brief: as §1

HS729 = tested on: HS729
Method in brief: as §1

RD-ES = tested on: RD-ES
Method in brief: as §1

SK-LMS-1 = tested on: SK-LMS-1
Method in brief: as §1

HT1080 = tested on: HT1080
Method in brief: as §1

SW872 = tested on: SW872
Method in brief: as §1

CNC(=O)c1cccc2cc(Oc3ccnc4cc(OCC5(N)CC5)c(OC)cc34)ccc12 [Lucitanib]
Conditions	relative viability
A204, 0.00017 µM	1.04
A204, 0.00051 µM	1.07
A204, 0.00152 µM	1.04
A204, 0.00457 µM	1.01
A204, 0.01372 µM	0.859
A204, 0.04115 µM	0.584
A204, 0.1235 µM	0.421
A204, 0.3704 µM	0.391
A204, 1.111 µM	0.265
A204, 3.333 µM	0.172
A204, 10 µM	0.153
G401, 0.00017 µM	1.07
G401, 0.00051 µM	1.04
G401, 0.00152 µM	1.02
G401, 0.00457 µM	0.989
G401, 0.01372 µM	1
G401, 0.04115 µM	1.01
G401, 0.1235 µM	0.964
G401, 0.3704 µM	0.888
G401, 1.111 µM	0.641
G401, 3.333 µM	0.451
G401, 10 µM	0.349
HS729, 0.00017 µM	1.08
HS729, 0.00051 µM	1.07
HS729, 0.00152 µM	1.07
HS729, 0.00457 µM	1.04
HS729, 0.01372 µM	1.01
HS729, 0.04115 µM	0.983
HS729, 0.1235 µM	0.915
HS729, 0.3704 µM	0.866
HS729, 1.111 µM	0.692
HS729, 3.333 µM	0.618
HS729, 10 µM	0.568
HT1080, 0.00017 µM	1.08
HT1080, 0.00051 µM	1.09
HT1080, 0.00152 µM	1.1
HT1080, 0.00457 µM	1.07
HT1080, 0.01372 µM	1.1
HT1080, 0.04115 µM	1.09
HT1080, 0.1235 µM	1.095
HT1080, 0.3704 µM	1.09
HT1080, 1.111 µM	1.11
HT1080, 3.333 µM	1.12
HT1080, 10 µM	1.14
KHOS-NP, 0.00017 µM	1.103
KHOS-NP, 0.00051 µM	1.13
KHOS-NP, 0.00152 µM	1.12
KHOS-NP, 0.00457 µM	1.11
KHOS-NP, 0.01372 µM	1.11
KHOS-NP, 0.04115 µM	1.11
KHOS-NP, 0.1235 µM	1.126
KHOS-NP, 0.3704 µM	1.11
KHOS-NP, 1.111 µM	1.12
KHOS-NP, 3.333 µM	1.12
KHOS-NP, 10 µM	1.13
RD-ES, 0.00017 µM	0.984
RD-ES, 0.00051 µM	1.01
RD-ES, 0.00152 µM	1
RD-ES, 0.00457 µM	1
RD-ES, 0.01372 µM	0.969
RD-ES, 0.04115 µM	0.99
RD-ES, 0.1235 µM	0.981
RD-ES, 0.3704 µM	0.949
RD-ES, 1.111 µM	0.92
RD-ES, 3.333 µM	0.882
RD-ES, 10 µM	0.798
SK-ES-1, 0.00017 µM	1.07
SK-ES-1, 0.00051 µM	1.12
SK-ES-1, 0.00152 µM	1.09
SK-ES-1, 0.00457 µM	1.11
SK-ES-1, 0.01372 µM	1.01
SK-ES-1, 0.04115 µM	1.07
SK-ES-1, 0.1235 µM	1
SK-ES-1, 0.3704 µM	1.07
SK-ES-1, 1.111 µM	1.01
SK-ES-1, 3.333 µM	0.865
SK-ES-1, 10 µM	0.531
SK-LMS-1, 0.00017 µM	1.071
SK-LMS-1, 0.00051 µM	1.09
SK-LMS-1, 0.00152 µM	1.056
SK-LMS-1, 0.00457 µM	1.08
SK-LMS-1, 0.01372 µM	1.04
SK-LMS-1, 0.04115 µM	1.03
SK-LMS-1, 0.1235 µM	0.988
SK-LMS-1, 0.3704 µM	0.999
SK-LMS-1, 1.111 µM	0.958
SK-LMS-1, 3.333 µM	0.8754
SK-LMS-1, 10 µM	0.758
SW684, 0.00017 µM	1.14
SW684, 0.00051 µM	1.23
SW684, 0.00152 µM	1.26
SW684, 0.00457 µM	1.23
SW684, 0.01372 µM	1.21
SW684, 0.04115 µM	1.21
SW684, 0.1235 µM	1.15
SW684, 0.3704 µM	1.18
SW684, 1.111 µM	1.19
SW684, 3.333 µM	1.12
SW684, 10 µM	1.11
SW872, 0.00017 µM	1.07
SW872, 0.00051 µM	1.08
SW872, 0.00152 µM	1.056
SW872, 0.00457 µM	1.07
SW872, 0.01372 µM	1.07
SW872, 0.04115 µM	1.059
SW872, 0.1235 µM	1.038
SW872, 0.3704 µM	1.057
SW872, 1.111 µM	1.07
SW872, 3.333 µM	1.04
SW872, 10 µM	0.961
SW982, 0.00017 µM	1.03
SW982, 0.00051 µM	1.06
SW982, 0.00152 µM	1.06
SW982, 0.00457 µM	1.049
SW982, 0.01372 µM	1.03
SW982, 0.04115 µM	1.05
SW982, 0.1235 µM	1.03
SW982, 0.3704 µM	1.04
SW982, 1.111 µM	1.03
SW982, 3.333 µM	0.972
SW982, 10 µM	0.608
VA-ES-BJ, 0.00017 µM	1.08
VA-ES-BJ, 0.00051 µM	1.07
VA-ES-BJ, 0.00152 µM	1.09
VA-ES-BJ, 0.00457 µM	1.091
VA-ES-BJ, 0.01372 µM	1.1
VA-ES-BJ, 0.04115 µM	1.11
VA-ES-BJ, 0.1235 µM	1.12
VA-ES-BJ, 0.3704 µM	1.13
VA-ES-BJ, 1.111 µM	1.16
VA-ES-BJ, 3.333 µM	1.14
VA-ES-BJ, 10 µM	0.914
